# Reference: patent publication US20240285765A1, “PHTHALOCYANINE DYE COMPOUNDS, CONJUGATES AND METHODS OF USE THEREOF” (Rakuten Medical, Inc., priority 2021, published 2024)
# What was measured:
# [1] = Singlet oxygen quantum yield, indirect method with chemical quencher (DPBF or ADMA); assay type: physicochemical
# Excerpt: Photogeneration quantum yields of singlet oxygen (ΦΔ) were obtained by an indirect method, using either diphenylisobenzofuran (DBPF) or anthracene-9,10-bis-methylmalonate (ADMA) as chemical quenchers in either N,N-dimethylformamide or aqueous media, respectively. Typically, a solution of the phthalocyanine and the quencher was irradiated with a red LED lamp (670 nm) at 5 mW/cm^2. The initial DPBF or ADMA concentrations were kept the same for both the reference and the test samples. The degradation of the DPBF band at 414 nm or ADMA at 401 nm was monitored in a Varian Cary® 50 UV-Vis spectrophotometer, every five seconds in the case of DPBF (up to 30 seconds) and every minute in the case of ADMA (up to five minutes). ZnPc (ΦΔ=0.67) and AlPcSmix (ΦΔ=0.42) were used as references in N,N-dimethylformamide or aqueous media, respectively.
# The relative method shown by Eq. (1) was employed for calculations of the ΦΔ:
# [formula] • where ΦΔ and ΦΔref are the ^1O2 generation quantum yields for the sample and reference, respectively, m and mref are the DPBF or ADMA photobleaching rates in the presence of the phthalocyanine of the invention and the reference, respectively, and I and Iref are the rates of light absorption by the phthalocyanine derivative and reference, respectively. Concentrations of the test compound and reference were chosen such that their respective absorptions at the irradiation wavelength were the same.
# [2] = Kinetic (aqueous) solubility in pH 7.4 DPBS, UV quantification; conditions: for solubility kinetic at 4 h: pH 7.4, aqueous buffer, kinetic from dmso stock; for Solubility* (kinetic solubility): pH 7.4 DPBS, 4 hours, room temperature (25° C.)
# [3] = quencher ADMA, aqueous media, 670 nm LED 5 mW/cm^2, reference AlPcSmix
SMILES,"ΦΔ (singlet oxygen quantum yield) [1, 3]",Solubility* (kinetic solubility) [2],solubility kinetic at 4 h ([2]; 25 °C) [µg/mL],also measured
"COCCOCCOCC(=O)NCCC[Si](C)(C)O[Si-2]123(O[Si](C)(C)CCCNC(=O)CCCCC(=O)O)n4c5c6ccccc6c4N=C4c6ccccc6C(=[N+]41)N=c1c4ccccc4c(n12)=NC1=[N+]3C(=N5)c2ccccc21 [Example 1, 6-((3-(dimethyl((19-((15-methyl-10-oxo-2,5,8-trioxa-11-aza-15-silahexadecan-15-yl)oxy)-19H-6,11-(azeno)-17,21-(azeno[3]episoindoloazeno)benzo[7,8][1,3,5,10]tetraaza[2]silacycloundecino[4,3-a:11,1-a′]diisoindol-19-yl)oxy)silyl)propyl)amino)-6-oxohexanoic acid]",–,–,–,"ΦΔ (singlet oxygen quantum yield) ([1]; quencher DPBF, N,N-dimethylformamide, 670 nm LED 5 mW/cm^2, reference ZnPc): A (A: ≤0.5)"
"COCCOCCOCCN(CCCOC(=O)NCCC[Si](C)(C)O[Si-2]123(O[Si](C)(C)CCCNC(=O)COCC(=O)O)n4c5c6ccccc6c4N=C4c6ccccc6C(=[N+]41)N=c1c4ccccc4c(n12)=NC1=[N+]3C(=N5)c2ccccc21)CCOCCOCCOC [Example 3, 2-(2-((3-(((19-((11-(2-(2-(2-methoxyethoxy)ethoxy)ethyl)-21-methyl-16-oxo-2,5,8,15-tetraoxa-11,17-diaza-21-siladocosan-21-yl)oxy)-19H-6,11-(azeno)-17,21-(azeno[3]episoindoloazeno)benzo[7,8][1,3,5,10]tetraaza[2]silacycloundecino[4,3-a:11,1-a′]diisoindol-19-yl)oxy)dimethylsilyl)propyl)amino)-2-oxoethoxy)acetic acid]",–,–,–,"solubility kinetic at 4 h ([2]; Dulbecco's phosphate-buffered saline (DPBS), pH 7.4, 25 °C): < 1 µg/mL"
"C[Si](C)(CCCNC(=O)CCC[N+](CCCS(=O)(=O)[O-])(CCCS(=O)(=O)O)CCCS(=O)(=O)O)O[Si]1(O[Si](C)(C)CCCNC(=O)COCC(=O)O)n2c3c4ccccc4c2N=C2N=C(N=c4c5ccccc5c(n41)=NC1=NC(=N3)c3ccccc31)c1ccccc12.N (stereo not drawn) [Example 5, Ammonium 3-((4-((3-(((19-(((3-(2-(carboxymethoxy)acetamido)propyl)dimethylsilyl)oxy)-19H-6,11-(azeno)-17,21-(azeno[3]episoindoloazeno)benzo[7,8][1,3,5,10]tetraaza[2]silacycloundecino[4,3-a:11,1-a′]diisoindol-19-yl)oxy)dimethylsilyl)propyl)amino)-4-oxobutyl)bis(3-sulfopropyl)ammonio)propane-1-sulfonate]",B (B: >0.5),–,–,–
"C[Si](C)(CCCNC(=O)COCC(=O)O)O[Si]1(O[Si](C)(C)CCCNC(=O)NCCS(=O)(=O)O)n2c3c4ccccc4c2N=C2N=C(N=c4c5ccccc5c(n41)=NC1=NC(=N3)c3ccccc31)c1ccccc12.N (stereo not drawn) [Example 7, Ammonium 2-(2-((3-(((19-((dimethyl(3-(3-(2-sulfonatoethyl)ureido)propyl)silyl)oxy)-19H-6,11-(azeno)-17,21-(azeno[1]episoindoloazeno)benzo[7,8][1,3,5,10]tetraaza[2]silacycloundecino[4,3-a:11,1-a′]diisoindol-19-yl)oxy)dimethylsilyl)propyl)amino)-2-oxoethoxy)acetate]",–,A (A: ≤1 μg/mL),–,–
"C[Si](C)(CCCNC(=O)COCC(=O)O)O[Si]1(O[Si](C)(C)CCCNC(=O)NCC(S(=O)(=O)O)S(=O)(=O)O)n2c3c4ccccc4c2N=C2N=C(N=c4c5ccccc5c(n41)=NC1=NC(=N3)c3ccccc31)c1ccccc12.N (stereo not drawn) [Example 8, Ammonium 2-(2-((3-(((19-(((3-(3-(2,2-disulfonatoethyl)ureido)propyl)dimethylsilyl)oxy)-19H-6,11-(azeno)-17,21-(azeno[1]episoindoloazeno)benzo[7,8][1,3,5,10]tetraaza[2]silacycloundecino[4,3-a:11,1-a′]diisoindol-19-yl)oxy)dimethylsilyl)propyl)amino)-2-oxoethoxy)acetate]",–,A (A: ≤1 μg/mL),–,–
"C[Si](C)(CCCNC(=O)CCCN(CCCS(=O)(=O)O)CCCS(=O)(=O)O)O[Si]1(O[Si](C)(C)CCCNC(=O)COCC(=O)O)n2c3c4ccccc4c2N=C2N=C(N=c4c5ccccc5c(n41)=NC1=NC(=N3)c3ccccc31)c1ccccc12.N (stereo not drawn) [Example 15, Ammonium 2-(2-((3-(((19-(((3-(4-(bis(3-sulfonatopropyl)ammonio)butanamido)propyl)dimethylsilyl)oxy)-19H-6,11-(azeno)-17,21-(azeno[1]episoindoloazeno)benzo[7,8][1,3,5,10]tetraaza[2]silacycloundecino[4,3-a:11,1-a′]diisoindol-19-yl)oxy)dimethylsilyl)propyl)amino)-2-oxoethoxy)acetate]",–,B (B: >1 μg/mL to ≤100 μg/mL),–,–
"C[Si](C)(CCC[N+](CCCCS(=O)(=O)O)(CCCCS(=O)(=O)O)CCCCS(=O)(=O)O)O[Si-2]123(O[Si](C)(C)CCC[N+](CCCCS(=O)(=O)O)(CCCCS(=O)(=O)O)CCOCCOCCOCCC(=O)O)n4c5c6ccccc6c4N=C4c6ccccc6C(=[N+]41)N=c1c4ccccc4c(n12)=NC1=[N+]3C(=N5)c2ccccc21.[Na+].[Na+].[Na+].[Na+] [Example 17, Sodium 2-((19-((dimethyl(3-(tris(4-sulfonatobutyl)ammonio)propyl)silyl)oxy)-19H-6,11-(azeno)-17,21-(azeno[3]episoindoloazeno)benzo[7,8][1,3,5,10]tetraaza[2]silacycloundecino[4,3-a:11,1-a′]diisoindol-19-yl)oxy)-2-methyl-6,6-bis(4-sulfonatobutyl)-9,12,15-trioxa-6-aza-2-silaoctadecan-6-ium-18-oate]",B (B: >0.5),–,> 100,–
"C[Si](C)(CCC[N+](CCCCS(=O)(=O)[O-])(CCCCS(=O)(=O)[O-])CCCCS(=O)(=O)[O-])O[Si@@]1(O[Si](C)(C)CCC[N+](CCCCS(=O)(=O)[O-])(CCCCS(=O)(=O)[O-])CCOCCOCCC(=O)[O-])n2c3c4ccccc4c2/N=C2N=C(/N=c4/c5ccccc5/c(n41)=N/C1=NC(=N\3)/c3ccccc31)c1ccccc1\2.[Na+].[Na+].[Na+].[Na+] [Example 18, Sodium 2-((19-((dimethyl(3-(tris(4-sulfonatobutyl)ammonio)propyl)silyl)oxy)-19H-6,11-(azeno)-17,21-(azeno[3]episoindoloazeno)benzo[7,8][1,3,5,10]tetraaza[2]silacycloundecino[4,3-a:11,1-a′]diisoindol-19-yl)oxy)-2-methyl-6,6-bis(4-sulfonatobutyl)-9,12-dioxa-6-aza-2-silapentadecan-6-ium-15-oate]",B (B: >0.5),–,> 100,–
"C[Si](C)(CCC[N+](CCCS(=O)(=O)[O-])(CCCS(=O)(=O)[O-])CCCS(=O)(=O)[O-])O[Si@@]1(O[Si](C)(C)CCC[N+](CCCS(=O)(=O)[O-])(CCCS(=O)(=O)[O-])CCOCCOCCOCCC(=O)[O-])n2c3c4ccccc4c2/N=C2N=C(/N=c4/c5ccccc5/c(n41)=N/C1=NC(=N\3)/c3ccccc31)c1ccccc1\2.[Na+].[Na+].[Na+].[Na+] [Example 19, Sodium 2-((19-((dimethyl(3-(tris(3-sulfonatopropyl)ammonio)propyl)silyl)oxy)-19H-6,11-(azeno)-17,21-(azeno[3]episoindoloazeno)benzo[7,8][1,3,5,10]tetraaza[2]silacycloundecino[4,3-a:11,1-a′]diisoindol-19-yl)oxy)-2-methyl-6,6-bis(3-sulfonatopropyl)-9,12,15-trioxa-6-aza-2-silaoctadecan-6-ium-18-oate]",B (B: >0.5),–,> 100,–
